Reference: patent publication US8481051B2, “Cytotoxic T-cell epitope peptides that specifically attack epstein-barr virus-infected cells and uses thereof” (Medical and Biological Laboratories Co., Ltd., priority 2005, dated 2013)

Columns and labels:
Assay type in all cases: cell-based, human
[1] = tested on: EBNA1-specific CTL clone C6; test: IFNγ ELISPOT assay, CTL clone C6 with peptide-pulsed autologous CD40-B cells; conditions: autologous CD40-B cells pulsed with 10 μg/mL peptide; FIG. 9
Experimental: (§1) ELISPOT assays were performed by a known method (Kuzushima K., et al., Blood, 101:1460-1468 (2003)). Specifically, CD8 T cells were co-cultured with various stimulators in wells of Multiscreen-HA plates (Millipore, Billerica, Mass.) coated with anti-human interferon-γ (IFNγ) monoclonal antibody (Pierce Biotechnology, Philadelphia, Pa.). As stimulators, (A) autologous EBNA1 mRNA-transduced CD40-B cells or non-transduced CD40-B cells and (B) autologous or allogenic LCLs (1×10^5 cells/well) were seeded into each well. For peptide titration assays and the overlapping peptide assay described below, serial concentrations of synthetic peptides were added to autologous CD40-B cells for one hour at room temperature.
(§2) After reacting with anti-human IFNγ rabbit polyclonal antibody (Pierce Biotechnology), followed by addition of peroxidase-labeled anti-rabbit immunoglobulin antibody (Genzyme, Cambridge, Mass.) and substrate, the plates were washed and dried. IFNγ spots were enumerated under a stereoscopic microscope.

[2] = tested on: EBNA1-specific CTL clone B5; test: IFNγ ELISPOT assay, CTL clone B5 with peptide-pulsed autologous CD40-B cells; conditions: for recognition of 20-mer overlapping peptide by clone B5: autologous CD40-B cells pulsed with 10 μg/mL peptide, FIG. 9
Experimental: as §1, §2

[3] = tested on: LMP1-specific CTL clone H7; test: IFNγ ELISPOT assay, CTL clone H7 with peptide-pulsed A0206-293T cells; conditions: for recognition by H7 in ELISPOT assay: A0206-293T cells pulsed with various concentrations of synthetic peptide, FIG. 2D
Experimental: ELISPOT assays were performed by known methods (Kuzushima K., et al., Blood, 94:3094-3100 (1999); Kondo E., et al., J. Immunol., 169:2164-2171 (2002); and Kuzushima K., et al., Blood, 98:1872-1881 (2001)). Specifically, CD8 T cells were co-cultured with various stimulators in wells of Multiscreen-HA plates (MAHA S4510; Millipore, Billerica, Mass., USA) coated with anti-human interferon-γ (IFNγ) monoclonal antibody (Pierce Biotechnology, Philadelphia, Pa., USA).
As stimulators, HLA-A*0206-positive or -negative LCLs (1×10^5 cells/well) or HLA-A*0206-expressing HEK-293T (A0206-293T) cells (5×10^4 cells/well) transfected with plasmids using Lipofectamin 2000 (Invitrogen) were seeded into each well 48 hour before T cell addition. For peptide titration assays, several concentrations of synthetic peptides (Greiner, Frickenhausen, Germany) were pulsed to A0206-293T cells for one hour at room temperature. After probing with […] (Pierce Biotechnology) and reacting with peroxidase-labeled anti-rabbit IgG antibody (Genzyme, Cambridge, Mass., USA) for spot visualization, the plates were washed and dried. IFNγ spots were enumerated using a stereoscopic microscope.

SNK-6 cells = test: CTL assay (51Cr release) against SNK-6; conditions: SNK-6 pulsed with 100 nM epitope peptide; four-hour CTL assay; FIG. 5A
Experimental: Next, cytotoxic activities of H7 on LCLs were explored. CTL assays were conducted according to the following procedures. Target cells were labeled with 50 μCi chromium (^51Cr) for one and a half hours at 37° C., washed, and mixed with CTLs at the indicated effector:target ratios in 96-well plates. After incubation for 4 or 16 hours at 37° C., the radioactivity in the supernatants was counted with a γ-counter. The percentage of specific ^51Cr release was calculated as follows: 100×{(experimental release)−(spontaneous release)}/{(maximum release)−([…])}.

## #24: 20-mer overlapping EBNA1 peptide (402-421)
[1]
  recognition of 20-mer overlapping peptide by clone C6: recognized

## #38: 20-mer overlapping EBNA1 peptide (500-519)
[2]
  recognition of 20-mer overlapping peptide by clone B5: recognized

## #39: 20-mer overlapping EBNA1 peptide (507-526)
[2]
  recognition of 20-mer overlapping peptide by clone B5: recognized

## I I I I L I I F I (IIIILIIFI) [SEQ ID NO: 1]
[3]
  recognition by H7 in ELISPOT assay: recognized by H7
SNK-6 cells
  lysis of epitope peptide-pulsed SNK-6 cells by H7: efficiently lysed

## I I I L I I F I (IIILIIF) [SEQ ID NO: 18, LMP1 amino acid residues 64-71]
[3]
  recognition by H7 in ELISPOT assay: only the 9-mer peptide was recognized by H7

## VYGGSKTSL [SEQ ID NO: 22]
[2]; autologous CD40-B cells, serial dilutions of peptide, FIG. 10C
  recognition by clone B5 in peptide titration: not recognized even with much higher concentrations

## YLLEMLWRL [SEQ ID NO: 25, reference compound]
[3]; data not shown
  IFNγ production by H7 with the peptide: did not produce IFNγ
